The subject of this experiment is TIF-IA. As to the kind of experiment: Two-dimensional tryptic phosphopeptide mapping of TIF-IA labeled in vivo in HEK293T cells. The format is cell-based, human. As to conditions: serum-stimulated cells, 40 μM PD98059. How it is done: HEK293T cells were transfected with pcDNA3.1-FLAG-TIF-IA, starved for 12 hr and labeled for 4 hr with [^32P]orthophosphate. 30 min before harvesting, 10% dialyzed FCS was added and cells were incubated in the absence (left panel) or presence of 40 μM PD98059 (right panel). Immunopurified TIF-IA was subjected to two-dimensional phosphopeptide mapping.
(B) Tryptic peptide maps of TIF-IA phosphorylated in vivo. FLAG-tagged wild-type TIF-IA, TIF-IAS633A and TIF-IAS649A were expressed in HEK293T cells and labeled with [^32P]orthophosphate for 4 hr. TIF-IA was purified by immunoprecipitation and digested with trypsin. Phosphopeptides were separated on cellulose thin-layer plates and visualized by autoradiography. The sequence of the C-terminus of human TIF-IA (H.s.) and an alignment with the corresponding sequences from mouse (M.m.), Drosophila melanogaster (D.m.) and Saccharomyces pombe (S.p.) is shown above.
(A) Two-dimensional tryptic phosphopeptide maps of TIF-IA. HEK293T cells were transfected with FLAG-tagged TIF-IA and labeled for 2 hr with [^32P]orthophosphate in the absence (left) or presence (right) of 20 nM rapamycin. TIF-IA was immunopurified, digested with trypsin, separated on cellulose thin-layer plates and visualized by autoradiography.
(B) Tryptic phosphopeptide map of TIF-IAS44A phosphorylated in vivo. […]

Consider `COc1cccc(-c2cc(=O)c3ccccc3o2)c1N` [PD98059], for which the “labeling of TIF-IA phosphopeptide spots d, f and g” value was “impaired”; the “phosphorylation of TIF-IA phosphopeptide spots b and c” value is given as “reduced”.

The record behind these values is patent publication US20060057669A1, “Inactive transcription factor tif-ia and uses thereof” (priority 2002, published 2006).
